PubChem BioAssay AID383 (SGCOxCompounds, 2006)

Biological target: Dual specificity protein kinase CLK3 (Homo sapiens) (UniProt P49761)
Assay: ligand binding to human CDC-like kinase 3 – biophysical, thermal shift, recombinant protein (AID 383)
Conditions: at 10 µM, stronger effect = higher value
[1] = protein 2 µM, buffer 10 mM HEPES, NaCl 150 mM, with 50 mM Arg/Glu
[2] = protein 1.5 µM, buffer 10 mM HEPES, pH 7.5, NaCl 150 mM, with 50 µM L-Arg/L-Glu (1:1)
[3] = protein 2 µM, buffer 50 mM HEPES, pH 7.5, NaCl 500 mM
[4] = protein 1.8 µM, buffer 10 mM HEPES, pH 7.5, NaCl 150 mM, with 50 µM L-Arg/L-Glu (1:1)
[5] = protein 2 µM, buffer 10 mM HEPES, pH 7.5, NaCl 150 mM
[6] = protein 1.7 µM, buffer 10 mM HEPES, pH 7.5, NaCl 150 mM, with 50 µM L-Arg/L-Glu (1:1)

Dual specificity protein kinase CLK3 (Homo sapiens), sequence (P49761 whole entry, looked up): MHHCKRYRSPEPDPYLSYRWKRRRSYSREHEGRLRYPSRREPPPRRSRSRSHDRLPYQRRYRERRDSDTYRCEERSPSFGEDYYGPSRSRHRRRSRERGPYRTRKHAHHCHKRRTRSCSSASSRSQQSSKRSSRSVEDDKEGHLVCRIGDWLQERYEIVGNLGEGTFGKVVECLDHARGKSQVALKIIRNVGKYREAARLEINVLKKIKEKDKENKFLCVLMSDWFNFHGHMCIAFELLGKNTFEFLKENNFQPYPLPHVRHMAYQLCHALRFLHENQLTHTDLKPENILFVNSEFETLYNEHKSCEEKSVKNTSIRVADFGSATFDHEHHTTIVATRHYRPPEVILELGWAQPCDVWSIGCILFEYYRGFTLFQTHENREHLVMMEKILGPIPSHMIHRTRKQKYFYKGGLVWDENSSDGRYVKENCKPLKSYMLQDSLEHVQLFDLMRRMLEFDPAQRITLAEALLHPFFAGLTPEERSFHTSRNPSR

CCC(CO)Nc1ccc2ncc(-c3ccc(C(=O)O)cc3)n2n1 (stereo not drawn)
Tm shift [1]: 3.99 Celsius

CC(C)C(CO)Nc1nc(Nc2cccc(Cl)c2)c2ncn(C(C)C)c2n1 (stereo not drawn)
Tm shift [1]: 3.88 Celsius

O=C1NC(=O)C(c2c[nH]c3ccccc23)=C1c1c[nH]c2ccccc12
Tm shift [2]: 3.2 Celsius

O=C1C(=O)C(c2cc(O)c(O)c(O)c2)Oc2cc(O)cc(O)c21 (stereo not drawn)
Tm shift [3]: 3.08 Celsius

OCC(O)CCO/N=C1/C(c2c(O)[nH]c3ccccc23)=Nc2ccccc21 (stereo not drawn)
Tm shift [2]: 4 Celsius

COc1cc(/C=C/C(=O)CC(=O)/C=C/c2ccc(O)c(OC)c2)ccc1O
Tm shift [4]: 5.3 Celsius

NC1=N/C(=C2\CCNC(=O)c3[nH]ccc32)C(=O)N1
Tm shift [1]: 4.35 Celsius

N#C/C(=C1\Nc2ccccc2S1)c1ccnc(NCCc2cccnc2)n1
Tm shift [2]: 4.9 Celsius

O=Nc1c(-c2c(O)[nH]c3ccccc23)[nH]c2ccccc12
Tm shift [4]: 4.6 Celsius

CCC(CO)Nc1ccc2ncc(-c3cccc(C(C)=O)c3)n2n1 (stereo not drawn)
Tm shift [5]: 3.42 Celsius

O=c1c(O)c(-c2cc(O)c(O)c(O)c2)oc2cc(O)cc(O)c12
Tm shift [3]: 3.25 Celsius

NCCCn1cc(C2=C(c3c[nH]c4ccccc34)C(=O)NC2=O)c2ccccc21
Tm shift [3]: 3.18 Celsius

CC(C)[C@@H](CO)Nc1ccc2ncc(-c3cccc(OC(F)(F)F)c3)n2n1
Tm shift [5]: 4.02 Celsius

CC(=O)c1cccc(-c2cnc3ccc(N[C@H](CO)C(C)C)nn23)c1
Tm shift [1]: 3.77 Celsius

Cc1[nH]c(/C=C2\C(=O)Nc3ccc(S(=O)(=O)N(C)c4cccc(Cl)c4)cc32)c(C)c1C(=O)N1CCN(C)CC1
Tm shift [2]: 3.7 Celsius

Nc1nc(Nc2ccc(S(N)(=O)=O)cc2)nn1C(=S)Nc1c(F)cccc1F
Tm shift [1]: 15.1 Celsius

COc1cccc(-c2cnn3ccc(Nc4cccc(Cl)c4)nc23)c1
Tm shift [5]: 4.61 Celsius

O=Nc1c(-c2c(O)[nH]c3ccc(S(O)(O)O)cc23)[nH]c2ccccc12
Tm shift [2]: 4.7 Celsius

O=C(c1ccc(Nc2nccc(-c3cc4ccccc4s3)n2)cc1)N1CCC(N2CCCC2)CC1
Tm shift [2]: 6.3 Celsius

Nc1ncnc2c1c(I)cn2[C@@H]1O[C@H](CO)C(O)C1O (stereo partly drawn)
Tm shift [4]: 7.5 Celsius
Tm shift [1]: 7.25 Celsius

Nc1nc(Nc2ccc(F)cc2)sc1C(=O)c1ccccc1
Tm shift [6]: 3.2 Celsius

COc1ccc(Nc2nc(N)c(C(=O)c3ccc(Cl)cc3)s2)cc1
Tm shift [6]: 3.7 Celsius

O=c1c(O)c(-c2ccc(O)c(O)c2)oc2cc(O)cc(O)c12
Tm shift [1]: 4.2 Celsius
Tm shift [3]: 3.12 Celsius

Nc1ccc(-c2cnn3ccc(Nc4cccc(Cl)c4)nc23)cc1
Tm shift [5]: 3.58 Celsius

CCC(CO)Nc1ccc2ncc(-c3ccc(F)c(Cl)c3)n2n1 (stereo not drawn)
Tm shift [5]: 3.6 Celsius

COc1ccc(Nc2nc(N)c(C(=O)c3ccc(OC)cc3)s2)cc1
Tm shift [6]: 4.3 Celsius

N#Cc1ccc(-c2cnc3ccc(NC4CCOCC4)nn23)cc1
Tm shift [5]: 3.76 Celsius

CCC(CO)Nc1ccc2ncc(-c3ccc(OC)nc3)n2n1 (stereo not drawn)
Tm shift [5]: 4.48 Celsius

CCN1/C(=C/C(C)=O)Sc2ccc(OC)cc21
Tm shift [3]: 3.16 Celsius

O=c1cc(-c2ccc(O)c(O)c2)oc2cc(O)cc(O)c12
Tm shift [3]: 4.28 Celsius

Nc1nc(Nc2cccc(Cl)c2)sc1C(=O)c1ccc(F)cc1
Tm shift [6]: 3.4 Celsius

CC(C)n1cnc2c(Nc3cccc(Cl)c3)nc(NCCO)nc21
Tm shift [4]: 4.6 Celsius
Tm shift [1]: 3.76 Celsius

CCC(CO)Nc1ccc2ncc(-c3ccc(O)cc3)n2n1 (stereo not drawn)
Tm shift [1]: 4.43 Celsius

Cc1c2ccncc2c(C)c2c1[nH]c1ccccc12
Tm shift [4]: 4.2 Celsius

NC(=O)c1ccc(-c2nc(-c3ccc4c(c3)OCCO4)c(-c3ccccn3)[nH]2)cc1
Tm shift [4]: 4.8 Celsius

O=c1cc(-c2ccc(O)cc2)oc2cc(O)cc(O)c12
Tm shift [4]: 3.1 Celsius

CC(C)[C@@H](CO)Nc1ccc2ncc(-c3ccc(C#N)cc3)n2n1
Tm shift [1]: 4.58 Celsius

Cn1cc(/C=C2\C(=O)Nc3ccc(S(N)(=O)=O)cc32)c2ccccc21
Tm shift [4]: 3.2 Celsius

CN(C)CCCn1cc(C2=C(c3c[nH]c4ccccc34)C(=O)NC2=O)c2ccccc21
Tm shift [4]: 3.5 Celsius

CCC(CO)Nc1ccc2ncc(-c3cccc(OC(F)(F)F)c3)n2n1 (stereo not drawn)
Tm shift [5]: 3.66 Celsius

N=C(N)SCCCn1cc(C2=C(c3c[nH]c4ccccc34)C(=O)NC2=O)c2ccccc21
Tm shift [1]: 3.37 Celsius

CC1N=C2SC=CN2C(=O)C1CCN1CCC(=C(c2ccccc2)c2ccc(F)cc2)CC1 (stereo not drawn)
Tm shift [4]: 3.8 Celsius

Clc1cccc(Nc2ccn3ncc(-c4ccc5c(c4)OCO5)c3n2)c1
Tm shift [5]: 6.07 Celsius

O=Nc1c(-c2c(O)[nH]c3ccc(I)cc23)[nH]c2ccccc12
Tm shift [2]: 4.5 Celsius

CC(C)[C@@H](CO)Nc1ccc2ncc(-c3cccc(O)c3)n2n1
Tm shift [5]: 4.02 Celsius

CC(=O)Nc1cccc(-c2cnc3ccc(N[C@H](CO)C(C)C)nn23)c1
Tm shift [1]: 4.32 Celsius

CN(C)S(O)(O)c1ccc2c(c1)/C(=C/c1cc3c([nH]1)CCCC3)C(=O)N2
Tm shift [4]: 4.1 Celsius

Cc1cc(Nc2nc(-c3ccccc3)nc3ccccc23)n[nH]1
Tm shift [2]: 4.1 Celsius

NC1=N/C(=C2/CCNC(=O)c3[nH]c(Br)cc32)C(=O)N1
Tm shift [4]: 7.2 Celsius
Tm shift [1]: 8.87 Celsius
